Where “and” joins values, the source holds several entries; their conditions need not be identical. Equal values may be shown once. Read-outs that look alike come from different tables or passages of the source. Starred links: 1 amine or outer side, 2 acyl side, 3 side chain; linkers in the order of their positions; H or OH if unused. Positions of bridges follow the written chain, without caps; N, C: chain ends. Non-standard residues stand in square brackets, D forms with d. Residues, ends and D or L forms follow the SMILES beside them. *: point of attachment. hTyr(3S-OH,4S-OH,3'-OSO3H) = N[C@H](C(=O)O)[C@H](O)[C@@H](O)c1ccc(O)c(OS(=O)(=O)O)c1; Orn(4R-OH,5R-OH) = O=C([C@H](C[C@@H](O)[C@@H](O)N[*:3])N[*:1])[*:2]; Pro(3S-OH,4S-Me) = C[C@H]1CN[C@H](C(=O)O)[C@H]1O; X1 = CCCCCOc1ccc(-c2cc(-c3ccc(C(=O)*)cc3)no2)cc1; Gln(3R-OH) = NC(=O)C[C@@H](O)[C@H](N)C(=O)O; Hyp = O=C(O)[C@@H]1C[C@@H](O)CN1
Key:
[1] = Storage stability of ready-to-use micafungin sodium solution in vials at 2-8° C. (purity and impurities by RRT); format: physicochemical; conditions: API (drug substance used)
Method: As used herein, “relative retention time” (“RRT”) is calculated by dividing the retention time of the peak of interest by the retention time of the main peak. Any peak with an RRT<1 elutes before the main peak, and any peak with an RRT>1 elutes after the main peak. […]

[2] = cited from earlier work

CCCCCOc1ccc(-c2cc(-c3ccc(C(=O)N[C@H]4C[C@@H](O)[C@@H](O)NC(=O)[C@@H]5[C@@H](O)[C@@H](C)CN5C(=O)[C@H]([C@H](O)CC(N)=O)NC(=O)[C@H]([C@H](O)[C@@H](O)c5ccc(O)c(OS(=O)(=O)O)c5)NC(=O)[C@@H]5C[C@@H](O)CN5C(=O)[C@H]([C@@H](C)O)NC4=O)cc3)no2)cc1 [Micafungin sodium, {5-[(1S,2S)-2-[(3S,6S,9S,11R,15S,18S,20R,21R,24S,25S,26S)-3-[(1R)-2-carbamoyl-1-hydroxyethyl]-11,20,21,25-tetrahydroxy-15-[(1R)-1-hydroxyethyl]-26-methyl-2,5,8,14,17,23-hexaoxo-18-[(4-{5-[4-(pentyloxy)phenyl]-1,2-oxazol-3-yl)benzene)amido]-1,4,7,13,16,22-hexaazatricyclo[22.3.0.0.0^9,13]heptacosan-6-yl]-1,2-dihydroxyethyl]-2-hydroxyphenyl} oxidanesulfonic acid] (X1-[Orn(4R-OH,5R-OH)]T[Hyp][hTyr(3S-OH,4S-OH,3'-OSO3H)][Gln(3R-OH)][Pro(3S-OH,4S-Me)]; lactam 1-C)
Imp at RRT 1.02 [1]: 0.24
Imp at RRT 0.93 ([1]; listed as API): 0.64 and 0.58
Imp. E ([1]; listed as API): 0.01 and 0.02
Purity ([1]; listed as API): 99.25 and 98.97
Solubility ([2]; N,N-dimethylformamide): freely soluble
Solubility ([2]; acetone): practically insoluble
Solubility ([2]; acetonitrile): practically insoluble
Solubility ([2]; diethyl ether): practically insoluble
Solubility ([2]; dimethylsulfoxide): freely soluble
Solubility ([2]; ethyl alcohol (95%)): practically insoluble
Solubility ([2]; isotonic sodium chloride solution): freely soluble
Solubility ([2]; methyl alcohol): slightly soluble
Solubility ([2]; n-hexane): practically insoluble
Solubility ([2]; water): freely soluble

Source: patent US20220040092A1, “Ready to use injectable formulations of Micafungin Sodium” (RK Pharma Solutions LLC, priority 2020, published 2022)
